Laboratory results from paper PMC11593952 (International Journal of Molecular Sciences, 2024).
Read-outs that look alike come from different tables or passages of the source.

What was measured:
in vivo [1] = settings: for exposure in the plasma, fold higher than CBD, L1, and L3: oral
Experimental: (§1) Animal experiments were conducted in accordance with the National Institutes of Health Laboratory Animal Care and Use Guidelines. Male SPF SD rats from the Animal Center of Anhui Medical University (Hefei, China) were used for the experiment. […] At each time point (0.5, 1, 2, 4, and 8 h) after administration, samples of brain, heart, kidney, liver, lung, and spleen were collected from each rat for tissue distribution study. While for pharmacokinetic study, the plasma samples were gathered from the suborbital vein at 5, 15, 30, and 45 min and 1, 2, 4, 8, and 12 h after oral administration. The maintenance and treatment procedures for experimental animals were approved by the Animal Care and Use Committee of Anhui Medical University (approval number: LLSC20190274). Room temperature was 22 ± 2 °C, using a light/dark (12: 12 h) cycle, the animals were free to consume food and water one day before the experiment.
(§2) An aliquot of 60 μL plasma sample was spiked with 60 µL aqueous ascorbic acid (0.1%) and 20 μL of IS working solution (300 ng/mL). After vortexing for 30 s, 400 µL MTBE was added to plasma sample for liquid–liquid extraction. The mixture was vigorously mixed for 10 min and centrifuged at 12,000 rpm at 4 °C for 5 min; approximately 400 µL of supernatant was transferred to a clean 1.5 mL centrifuge tube and dried under a gentle stream of nitrogen gas. Subsequently, the residue was reconstituted with 100 µL of MeOH/water (7: 3, v/v), vortex-mixed for 2 min, and followed by centrifugation at 12,000 rpm for 20 min. Finally, 20 μL of the supernatant was injected into the UPLC-HRMS system for measurement. The tissue sample (100 mg) was homogenized in normal saline solution (1 mL), 600 μL homogenate sample was spiked with 60 µL aqueous ascorbic acid (0.1%) and 50 μL of the IS working solution (1000 ng/mL), and 1.2 mL MTBE was added for extraction. Then, 1 mL of supernatant was dried and proceeded as plasma sample pretreatment (Figure S1).
(§3) Quantitative analysis using Dionex Ultimate 3000 chromatography hyphenated to Q-Exactive plus Orbitrap mass spectrometer system (Thermo Fisher Scientific, Waltham, MA, USA). The analytes were detected in Full MS/dd-MS^2 mode to choose the parent ion and optimize the retention time; then, we used the parallel reaction monitoring (PRM) mode through positive ionization condition for determination. Xcalibur 4.1 software (Thermo Fisher Scientific) was used for data acquisition and processing.
Chromatographic separation was achieved on a Shimadzu-pack GIST column (50 mm × 2.1 mm, 2 μm, Shimadzu Company, Kyoto, Japan). Binary mobile solvents consisted of water (containing 0.1% FA, v/v) (A) and acetonitrile (B), the gradient program was as follows: 0 min 60% A → 1 min 60% A → 1.5 min 20% A → 7 min 20% A → 7.1 min 60% A → 8.5 min 60% A. The flow rate was set at 0.30 mL/min and the column temperature was 40 °C. The typical source parameters were optimized as follows: spray voltage: 4500 V; capillary temperature: 320 °C; auxiliary gas heater temperature: 200 °C; pressure of sheath gas: 320 kPa; auxiliary gas: 50 kPa.
Phoenix/WinNonlin software (version 6.4; Pharsight, Mountain View, CA, USA) was used to calculate the AUC and other pharmacokinetic parameters in plasma or tissue for each drug in a non-compartmental model.

in vivo [2] = settings: for Cmax / Kp / selectivity ratio: male, SD, rat, in vivo; for Cmax / Kp: po; for Cmax: 15 mg/kg; for Kp: AUCtissue/AUCplasma; for AUCbrain: brain; for AUCheart: heart; for AUCkidney: kidney; for AUCliver: liver; for AUClung: lung; for AUCspleen: spleen
Experimental: Drug exposure in tissue is calculated by drug exposure in the plasma and tissue/plasma distribution coefficient (Kp), as shown in Equation (1):Drug exposure in the tissue = drug exposure in the plasma × Kp(1) where drug exposure in the plasma and the tissue can be calculated by the drug concentration vs. time curve, and Kp values can be calculated by Ctissue/Cplasma or AUCtissue/AUCplasma. […] It is worth mentioning that Kp can be evaluated by the ratio of free fraction of drug candidate in plasma vs. in tissues in steady state. Nevertheless, this assessment is based on “free drug hypothesis” theory, which presumes that free drug concentration in tissue is close to that in plasma.
Dose escalation tests are always evaluated during clinical phase I/II trials, and MTD is constantly associated with drug exposure in certain toxicity-related organs. […] To evaluate the balance between efficacy and toxicity for drug candidates, drug tissue selectivity is a crucial parameter and defined as follows in Equation (2), where the sum of Ctissue or AUCtissue is total drug concentration or AUC in different tissues. Drug tissue selectivity = Ctissue/ΣCtissue or AUCtissue/ΣAUCtissue(2)
as §1, §2, §3
Chromatographic separation was achieved on a Shimadzu-pack GIST column (50 mm × 2.1 mm, 2 μm, Shimadzu Company, Kyoto, Japan).

eeAChE = eeAChE from electric eel, cited from earlier work; for IC50: mean ± SEM, at least three experiments
eqBuChE = eqBuChE from horse serum; mean ± SEM, at least three experiments; read-out: IC50 BuChE; cited from earlier work
[3] = cited from earlier work
[4] = rats, single intragastric 15 mg/kg, plasma
[5] = male, SD, rat, in vivo, po, 15 mg/kg

Row | Compound | CL (in vivo [1]; [4]) | Vd (in vivo [1]; [4]) | Cmax (in vivo [1]; [5]) | MRT last (in vivo [1]; [5]) | Tmax (in vivo [1]; [5]) | half-life (in vivo [1]; [5]) | IC50 (eeAChE) | IC50 (eqBuChE) | AUC (in vivo [1]; [5]) | AUC(0-inf) (in vivo [1]; [5]) | AUC(0-t) (in vivo [1]; [5]) | also measured
1 | C=C(C)[C@@H]1CCC(C)=C[C@H]1c1c(O)cc(CCCCC)cc1O [L1→CBD] | 1718.8 ± 707.3 mL/min/kg | 577.46 ± 442.26 L/kg |  |  |  |  |  |  |  |  |  | AUC0-T (in vivo [1]; [4]): 165.91 ± 87.56 ng·h/mL; AUC0-∞ (in vivo [1]; [4]): 172.51 ± 84.52 ng·h/mL; Cmax (in vivo [1]; [4]): 94.59 ± 27.06 ng/mL; MRT0-T (in vivo [1]; [4]): 2.21 ± 0.42 h; Tmax (in vivo [1]; [4]): 0.27 ± 0.15 h; t1/2 (in vivo [1]; [4]): 3.43 ± 1.64 h
2 | C=C(C)C1CCC(C)=CC1c1c(O)cc(CCCCC)cc1OC(=O)N(C)CC (stereo not shown) [Compound L2] | 434.5 ± 74.8 mL/min/kg | 99.38 ± 23.95 L/kg | 127 ± 23.6 ng/mL | 3.44 ± 0.22 h | 1.8 ± 0.45 h | 2.64 ± 0.45 h | 15000 ± 1020 nM | 77 ± 5 nM |  |  |  | exposure in the plasma, fold higher than CBD, L1, and L3 (in vivo [1]; rats): > 3 fold; Cmax (in vivo [2]): 56 ng/g; Kp (in vivo [2]; Kp brain, rats): 0.42; Kp (in vivo [2]; Kp heart, rats): 2.63; Kp (in vivo [2]; Kp kidney, rats): 5.51; Kp (in vivo [2]; Kp liver, rats): 5.3; Kp (in vivo [2]; Kp lung, rats): 3.27; Kp (in vivo [2]; Kp spleen, rats): 2.41; selectivity ratio (in vivo [2]; tissue selectivity in the brain, fold higher than L4, AUCtissue/ΣAUCtissue, L2 vs L4): 21; selectivity ratio (in vivo [2]; tissue selectivity in the kidney, fold lower than L4, AUCtissue/ΣAUCtissue, L2 vs L4): 1.2; selectivity ratio (in vivo [2]; tissue selectivity in the liver, fold lower than L4, AUCtissue/ΣAUCtissue, L2 vs L4): 1.8; AUCbrain (in vivo [2]; rats, oral 15 mg/kg): 213.8 ng·h/g; AUCheart (in vivo [2]; rats, oral 15 mg/kg): 1331.9 ng·h/g; AUCkidney (in vivo [2]; rats, oral 15 mg/kg): 2790.2 ng·h/g; AUCliver (in vivo [2]; rats, oral 15 mg/kg): 2684.5 ng·h/g; AUClung (in vivo [2]; rats, oral 15 mg/kg): 1655.0 ng·h/g; AUCspleen (in vivo [2]; rats, oral 15 mg/kg): 1220.9 ng·h/g; exposure in the kidney, fold lower than L4 (in vivo [2]; rats, oral 15 mg/kg, L2 vs L4): 2.8 fold; exposure in the liver, fold lower than L4 (in vivo [2]; rats, oral 15 mg/kg, L2 vs L4): 1.8 fold; brain concentration relative to L4 (in vivo [2]; rats, oral, L2 vs L4): fivefold higher
3 | CCN(C)C(=O)Oc1cccc([C@H](C)N(C)C)c1 [rivastigmine, reference compound] |  |  |  |  |  |  |  |  |  |  |  | bioavailability [3]: 36–40%
4 | C=C(C)C1CCC(C)=CC1c1c(O)cc(CCCCC)cc1OC(=O)N1CCCC1 (stereo not shown) [Compound L3] | 1273 ± 194.7 mL/min/kg | 320.94 ± 106.75 L/kg | 60 ± 8.63 ng/mL | 2.72 ± 0.6 h | 0.95 ± 0.11 h | 3.09 ± 1.52 h |  | 390 ± 40 nM | 182 ng·h/mL | 200 ± 32.5 ng·h/mL | 182 ± 13.9 ng·h/mL | 
5 | C=C(C)[C@@H]1CCC(C)=C[C@H]1c1c(O)cc(CCCCC)cc1O [CBD, Cannabidiol, reference compound] | 1492 ± 107 mL/min/kg | 474.16 ± 155.23 L/kg | 48.9 ± 11 ng/mL | 2.84 ± 0.23 h | 1.2 ± 0.45 h | 3.7 ± 1.26 h | 17100 ± 2430 nM | 670 ± 60 nM | 158 ng·h/mL | 168 ± 11.5 ng·h/mL | 158 ± 10.6 ng·h/mL | Tmax (reported values) [3]: 0 to 4 h; t1/2 (reported values) [3]: 1.4 to 10.9 h
6 | CNC(=O)Oc1ccc2c(c1)[C@]1(C)CCN(C)[C@@H]1N2C [physostigmine] |  |  |  |  |  |  |  |  |  |  |  | drug concentration in brains after oral vs intramuscular administration, times less [3]: 350 times; drug concentration in plasma after oral vs intramuscular administration, times less [3]: 200 times; bioavailability ([3]; first-pass metabolism): 2%
7 | C=C(C)C1CCC(C)=CC1c1c(O)cc(CCCCC)cc1OC(=O)N(C)Cc1ccc(Cl)cc1 (stereo not shown) [Compound L4] | 483.2 ± 100 mL/min/kg | 91.52 ± 22.81 L/kg | 211 ± 30.7 ng/mL | 2.38 ± 0.21 h | 0.8 ± 0.11 h | 2.17 ± 0.19 h |  | 5.3 ± 1.2 nM |  |  |  | exposure in the plasma, fold higher than CBD, L1, and L3 (in vivo [1]; rats): > 3 fold; Cmax (in vivo [2]): 19 ng/g; Kp (in vivo [2]; Kp brain, rats): 0.088; Kp (in vivo [2]; Kp heart, rats): 15.1; Kp (in vivo [2]; Kp kidney, rats): 15.7; Kp (in vivo [2]; Kp liver, rats): 10.1; Kp (in vivo [2]; Kp lung, rats): 15.1; Kp (in vivo [2]; Kp spleen, rats): 11.7; AUCbrain (in vivo [2]; rats, oral 15 mg/kg): 43.2 ng·h/g; AUCheart (in vivo [2]; rats, oral 15 mg/kg): 7431.3 ng·h/g; AUCkidney (in vivo [2]; rats, oral 15 mg/kg): 7723.4 ng·h/g; AUCliver (in vivo [2]; rats, oral 15 mg/kg): 4951.2 ng·h/g; AUClung (in vivo [2]; rats, oral 15 mg/kg): 7421.8 ng·h/g; AUCspleen (in vivo [2]; rats, oral 15 mg/kg): 5773.9 ng·h/g; Inhibition Rate % at 20 µM, AChE (eeAChE; at 20 µM): 21.4 ± 2.8%
8 | C=C(C)C1CCC(C)=CC1c1c(O)cc(CCCCC)cc1OC(=O)NC (stereo not shown) [Compound L1] | 1353 ± 361.8 mL/min/kg | 319.94 ± 171.55 L/kg | 120 ± 15.9 ng/mL | 2.05 ± 0.47 h | 0.22 ± 0.07 h | 2.7 ± 1.27 h | 18900 ± 1110 nM | 128 ± 22 nM | 191 ng·h/mL | 197 ± 58 ng·h/mL | 191 ± 58.7 ng·h/mL | metabolism to CBD observed in plasma (in vivo [1]; rats, intragastric administration): can be metabolized to produce CBD
